Where two headings read alike, the source gives them in different places. Where no end group is shown, it is not given here.
Experiments:
[1] = tested on: A. baumannii (ATCC BAA1605); conditions: Gram-negative, footnote e ciprofloxacin (MDR in Table S3); CLSI microdilution, CAMHB, 37 °C, 24 h; highest MIC of three independent experiments in triplicate
Method in brief: (§1)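 In this CLSI-recommended assay, peptides were serially diluted twofold and combined with bacteria at 10^6 CFU/mL in cation-adjusted Mueller Hinton Broth.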

[2] = tested on: Bacillus cereus (ATCC 13061); conditions: ATCC 13061, 24 h
Method in brief: as §1

[3] = tested on: Bacillus subtilis (ATCC 6633); conditions: ATCC 6633, 24 h
Method in brief: as §1

[4] = tested on: E. faecalis (ATCC 29212); conditions: Gram-positive; CLSI microdilution, CAMHB, 37 °C, 24 h; highest MIC of three independent experiments in triplicate
Method in brief: as §1

[5] = tested on: MRSA (ATCC BAA-1556); conditions: for MIC, MRSA (ATCC BAA-1556): broth microdilution (CLSI), CAMHB, 37 °C, 24 h
Method in brief: as §1

[6] = tested on: P. aeruginosa (ATCC BAA-1744); conditions: Gram-negative, resistant strain (marked a; imipenem resistant in Table S3); CLSI microdilution, CAMHB, 37 °C, 24 h; highest MIC of three independent experiments in triplicate
Method in brief: as §1

[7] = tested on: K. pneumoniae (ATCCBAA-1705); experiment: MIC, standard microtiter dilution (CLSI); type: cell-based, Klebsiella pneumoniae; conditions: broth microdilution (CLSI), CAMHB, 37 °C, 24 h
Method in brief: as §1

[8] = tested on: E. faecalis (ATCC 51575); experiment: microbe, parasite or virus in culture; conditions: Gram-positive, vancomycin-resistant; CLSI microdilution, CAMHB, 37 °C, 24 h; highest MIC of three independent experiments in triplicate
Protocol: (§2) Description of the characteristics and growth conditions of various bacterial strains used in the study are provided in the Supporting Information (Table S3). Antibacterial susceptibility testing was carried out using a standard microtiter dilution method recommended by the clinical and laboratory standard institute (CLSI) and measured as a minimum inhibitory concentration (MIC), the lowest peptide concentration that inhibited bacterial growth. Briefly, the overnight grown cultures in the recommended broth for each bacterial strain were diluted in cation-adjusted Mueller Hinton Broth (CAMHB) to give an inoculum of 10^6 colony-forming units (CFU)/mL. A 2-fold serially diluted test peptide solution (100 μL) was added to the microtiter plates. After adding bacterial suspension (100 μL), the plates were incubated at 37 °C for 24 h, and the MICs were determined. The same protocol was used to determine the MICs in the presence of salts and serum except using the media supplemented with various cationic salts (150 mM NaCl, 4.5 mM KCl, 6 mM NH4Cl, 1 mM MgCl2, and 2 mM CaCl2) or 25% FBS. The data was acquired from three independent assays performed in triplicate.
(§3) The bacterial strains employed in this study were obtained from the American Type Culture Collection (ATCC). Each strain was propagated as recommended by the ATCC, and each strain was stored as a frozen glycerol stock at -80°C. A bacterial colony was grown on the appropriate agar as indicated in Table S1 and was used to inoculate the appropriate broth. The culture was incubated at the appropriate conditions, as mentioned in Table S1. Following the incubation, the culture was diluted to an optical density 625 nm (OD625) of 0.1 in cation adjusted Mueller Hinton Broth (CAMHB), which is equivalent to 1 × 10^8 CFU/mL. The culture was further diluted to 1 × 10^6 CFU/mL, which was used to conduct the MIC determination assay. For the S. pneumoniae strains, CAMHB + 2.5% lysed horse blood was required for the assay. The strains with their […]
(§4) Table S3. Description of the characteristics and growth conditions of various bacterial strains

[9] = tested on: E. faecium (ATCC 27270); experiment: microbe, parasite or virus in culture; conditions: ATCC 27270, 24 h
Protocol: as §2, §3, §4

[10] = tested on: E. faecium (ATCC 700221); experiment: microbe, parasite or virus in culture; conditions: Gram-positive, vancomycin-resistant; CLSI microdilution, CAMHB, 37 °C, 24 h; highest MIC of three independent experiments in triplicate
Protocol: as §2, §3, §4

[11] = tested on: human lung fibroblast cells (MRC-5), human embryonic kidney cells (HEK-293), human hepatic cells (HepaRG), HeKa cells; experiment: 24 h cell viability assay (MTS); type: cell-based; conditions: all tested cells (MRC-5, HEK-293, HepaRG, HeKa), MTS, triplicate
Protocol: The in vitro cytotoxicity of 8a and 8b was evaluated using human lung fibroblast cells (MRC-5), human embryonic kidney cells (HEK-293), human hepatic cells (HepaRG), and human epidermal keratinocytes (HEKa). Cells were seeded at 10,000 per well in 0.1 mL of media in 96-well plates 24 h prior to the experiment. Lung and kidney cells were seeded in DMEM medium containing FBS (10%). Liver cells were seeded in William’s E medium with the GlutaMAX supplement. Epidermal keratinocytes were seeded in a Dermal Cell Basal medium supplemented with a keratinocyte growth kit. The peptides were added to each well in triplicates at a variable concentration of 10–250 μg/mL and incubated for 24h at 37 °C in a humidified atmosphere of 5% CO2. After the incubation period, the MTS solution (20 μL) was added to each well. Then, the cells were incubated for 2 h at 37 °C, and the cell viability was determined by measuring the absorbance at 490 nm using a SpectraMaxM2 microplate spectrophotometer. The percentage of cell survival was calculated as [(OD value of cells treated with the test mixture of compounds) – (OD value of culture medium)]/[(OD value of control cells) – (OD value of culture medium)] × 100%.

[12] = Relative hydrophobicity as RP-HPLC retention time; type: physicochemical; conditions: chromatographic, Phenomenex Luna C18 4 μm 150 × 4.6 mm, linear AB gradient 1% acetonitrile/min, 0.3 mL/min, A water 0.1% TFA, B acetonitrile 0.1% TFA, 25 °C
Method in brief: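 Retention time on analytical RP-HPLC serves as the hydrophobicity measure, using a 150 × 4.6 mm C18 column, 4 μm particles. Eluents: 0.1% TFA in water and 0.1% TFA in acetonitrile.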

[13] = 10^6 CFU/mL, highest MIC of three independent experiments in triplicate

In the case of RWLRRWLRWWRR-NH2 [8a], the “MIC, A. baumannii (ATCC BAA1605)” value [1] is reported as 6.2 µg/mL, the “MIC, Bacillus cereus (ATCC 13061)” value [2] is reported as 6.2 µg/mL and the “MIC, Bacillus subtilis (ATCC 6633)” value [3] is reported as 3.1 µg/mL. For the same substance, the “MIC, E. faecalis (ATCC 29212)” value [4] was 12.5 µg/mL, the “MIC, MRSA (ATCC BAA-1556), Control” value ([5]; MH media without salt ions or serum, three independent experiments in triplicate) was 6.2 µg/mL and the “MIC, MRSA (ATCC BAA-1556)” value [5, 13] was 6.2 µg/mL. For the same substance, the “MIC, MRSA (ATCC BAA-1556), MgCl2” value ([5]; media with 1 mM MgCl2, three independent experiments in triplicate) was 6.2 µg/mL, the “MIC, MRSA (ATCC BAA-1556), CaCl2” value ([5]; media with 2 mM CaCl2, three independent experiments in triplicate) was 6.2 µg/mL and the “MIC, MRSA (ATCC BAA-1556), KCl” value ([5]; media with 4.5 mM KCl, three independent experiments in triplicate) was 12.5 µg/mL. The “MIC, MRSA (ATCC BAA-1556), NH4Cl” value ([5]; media with 6 mM NH4Cl, three independent experiments in triplicate) was 6.2 µg/mL, the “MIC, MRSA (ATCC BAA-1556), NaCl” value ([5]; media with 150 mM NaCl, three independent experiments in triplicate) was 12.5 µg/mL and the “MIC, MRSA (ATCC BAA-1556), FBS (25%)” value ([5]; media with 25% fetal bovine serum, three independent experiments in triplicate) was 50 µg/mL. For the same substance, the “MIC, MRSA (ATCC BAA-1556)” value ([5]; value in parentheses (μM)) was 3.22 µM, the “MIC, P. aeruginosa (ATCC BAA-1744)” value [6] was 12.5 µg/mL and the “MIC, K. pneumoniae (ATCCBAA-1705)” value [7, 13] was 12.5 µg/mL. The “MIC, K. pneumoniae (ATCCBAA-1705)” value ([7]; value in parentheses (μM)) was 6.49 µM, the “MIC, E. faecalis (ATCC 51575)” value [8] was 6.2 µg/mL and the “MIC, E. faecium (ATCC 27270)” value [9] was 6.2 µg/mL. The “MIC, E. faecium (ATCC 700221)” value [10] was 3.1 µg/mL, the “cell viability at 50 μg/mL” value [11] was “below 60%” and the “cell viability at 250 μg/mL” value [11] was “below 30%”. The “tR, RP-HPLC retention time (measure of overall hydrophobicity)” value [12] was 34.99 min.
